Test results published in US20260151347A1, “CELL-DERIVED MICROPARTICLE DELIVERY SYSTEM AND USES THEREOF” (priority 2021, published 2026).

Tested on: 4T1-luc2 cells
Test: In vitro validation of released drug efficacy
Assay type: cell-based
Conditions: after 4 hours, free drug dose equals cumulative cisplatin release at 4 hours
Description: Additional controls include unloaded MPs and untreated cells. […] As shown in these experiments, the local release of high levels of payload may result in a stark increase in efficiency for the treatment of diseased cells.

N.N.[Cl][Pt][Cl] [Cisplatin]
cell death as compared to control: little to no cell death
